Measurements published in article PMC10707934, “Design and Synthesis of Novel α-Methylchalcone Derivatives, Anti-Cervical Cancer Activity, and Reversal of Drug Resistance in HeLa/DDP Cells” (Molecules, 2023).

How the values were obtained:
Format in all cases: cell-based, human
[1] = tested on: Bax; assay: Western blot, Bax expression in HeLa/DDP cells; details: 24 h, 5 and 10 μM
Experimental: (§1) HeLa cells were cultured in 60 mm Petri dishes at a density of 1.0 × 10^6 cells per dish and treated with 0.1% DMSO (vehicle), positive control chalcone (20 μM), and different concentrations of compound 3k (2.5, 5, and 10 μM), respectively. Following a 24 and 48 h incubation period, the cells were harvested via centrifugation and subsequently washed twice with PBS that had been chilled to 0 °C. Next, the cells were homogenized using RIPA lysis buffer (Solarbio, Beijing, China) and supplemented with 1% PMSF (MP Biomedicals, 0754-25G, CAS:329-98-6, Santa Ana, CA, USA) and 1% mixed phosphatase inhibitor (Solarbio, Beijing, China). […]
(§2) Subsequently, the protein concentrations were determined utilizing a BCA Protein Assay Kit (Solarbio, China). An equivalent quantity of the proteins (12 μg) was fractionated via 8–12% sodium dodecyl sulfate–polyacrylamide gel electrophoresis (SDS-PAGE) and transferred onto nitrocellulose membranes (Amersham Biosciences, Amersham, UK). […] The blots were subsequently visualized using enhanced chemiluminescence (Biosharp, Shanghai, China) and detected utilizing a PE 0723 imager (ProteinSimple, Silicon Valley, CA, USA). Each experiment was conducted in triplicate at minimum and analyzed employing Image J software (V1.8.0.112). β-actin(ab198991) rabbit mAb, goat anti-rabbit IgG (H + L) HRP—#S0001 (Affinity). […]

[2] = tested on: Bcl-2; assay: Western blot, Bcl-2 expression in HeLa/DDP cells; details: 24 h, 2.5, 5, and 10 μM
Experimental: as §1, §2

[3] = tested on: P-gp; assay: Western blot, P-gp expression in HeLa/DDP cells; details: 48 h, 0.25, 0.5, or 1 μM
[4] = tested on: HeLa/DDP cells; assay: Rhodamine 123 accumulation in HeLa/DDP cells; details: 48 h, 0.5 and 1 μM
Experimental: The experimental procedure involved the addition of 1 drop of PBS to each well of a 12-well plate, followed by the placement of cell crawlers and removal of excess PBS. HeLa/DDP cells were then plated at a concentration of 1.5 × 10^5 cells/mL, with 1 mL per well, and cultured for a duration of 24 h. A blank control group was established alongside a positive group treated with verapamil (6 μM) and an intervention group treated with 3k (0.25, 0.5, and 1 μM) for a duration of 48 h. The drug-containing culture medium was subsequently washed with PBS three times, with each wash lasting 5 min. The Rh123 master mix was diluted with culture medium to create a 20 μM Rh123 buffer, which was subsequently incubated at a temperature of 37 °C for a duration of 1 h. Following this incubation period, the Rh123 buffer was removed, and the cells were subjected to three consecutive washes with PBS, each lasting for 10 min. Subsequently, a fixation process was conducted using 4% paraformaldehyde at a volume of 1 mL per well, with a duration of 20 min. […] Subsequently, the side containing cells was affixed onto the liquid and made ready for measurement. The cells were then examined using a fluorescence microscope (Leica, Microsystems CMS GmbH, GER) equipped with a fluorescein filter, and the fluorescence intensity of each distinct group was assessed.

[5] = tested on: α-tubulin, β-tubulin in HeLa cells; assay: Immunofluorescence assay of microtubules, HeLa; details: 24 h, 3k 1, 2, and 4 μM, colchicine and paclitaxel 2.0 μM
Experimental: The cells were then fixed by adding 400 μL of 4% paraformaldehyde to each well and incubating for 30 min. 0.1% Triton was added at a volume of 400 μL per well and allowed to incubate for 10 min. Following this, goat serum (10%) was added at 400 μL per well and incubated for 40 min. Primary antibodies (α-tubulin, β-tubulin) were then incubated overnight at a temperature of 4 °C. Subsequently, secondary antibodies (α-mouse, β-rabbit) were incubated for 1.5 h. DAPI staining was performed at 400 μL per well for 5 min, followed by a wash with PBS. Cell climbing tablets were removed and inverted onto slides with sealer. Photographs were captured using a fluorescent inverted microscope.

COc1ccc(/C=C(\C)C(=O)c2ccc(Cl)c(Cl)c2)cc1OC [Compound 3k, (E)-1-(3,4-Dichlorophenyl)-3-(3,4-dimethoxyphenyl)-2-methylprop-2-en-1-one]
Bax expression versus control group [1]: significant increase
Bcl-2 expression versus control group [2]: significantly downregulate
expression of P-gp [3]: remained unchanged
average fluorescence intensity emitted by rhodamine 123 [4]: notably greater than that of the control group
microtubule immunofluorescence (α green, β red) [5]: green and red fluorescence of the encapsulated cells weakened
